# Key:
# PTPN22 [1] = biological target: T1, PTPN22 (Homo sapiens, UniProt Q9Y2R2); details: Vang et al., 2012; cited from earlier work
# T1 construct: host or cells: T cells (not further specified)
# T1 sequence (Q9Y2R2 1-807): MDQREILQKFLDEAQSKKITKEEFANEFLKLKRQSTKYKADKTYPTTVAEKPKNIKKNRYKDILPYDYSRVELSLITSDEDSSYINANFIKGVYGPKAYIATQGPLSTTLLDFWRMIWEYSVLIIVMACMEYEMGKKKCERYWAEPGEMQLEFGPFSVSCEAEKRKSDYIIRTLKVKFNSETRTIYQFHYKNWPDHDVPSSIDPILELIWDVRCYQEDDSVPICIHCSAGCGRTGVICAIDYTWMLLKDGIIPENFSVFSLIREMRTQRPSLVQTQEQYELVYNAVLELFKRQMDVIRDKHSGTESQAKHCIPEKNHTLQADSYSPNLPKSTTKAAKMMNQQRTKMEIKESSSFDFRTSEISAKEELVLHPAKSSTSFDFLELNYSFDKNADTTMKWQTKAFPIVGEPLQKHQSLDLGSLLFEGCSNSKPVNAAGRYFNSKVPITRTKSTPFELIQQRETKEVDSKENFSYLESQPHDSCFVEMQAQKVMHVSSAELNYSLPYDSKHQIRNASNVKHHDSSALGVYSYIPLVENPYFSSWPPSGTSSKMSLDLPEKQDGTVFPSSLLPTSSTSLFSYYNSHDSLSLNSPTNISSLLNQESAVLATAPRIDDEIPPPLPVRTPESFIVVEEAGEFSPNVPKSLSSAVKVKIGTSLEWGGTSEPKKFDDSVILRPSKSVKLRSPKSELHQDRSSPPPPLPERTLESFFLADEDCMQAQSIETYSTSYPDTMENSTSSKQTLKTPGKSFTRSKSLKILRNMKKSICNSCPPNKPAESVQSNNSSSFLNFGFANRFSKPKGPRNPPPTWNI
# LYN = test: Phosphorylation kinetics of LYN in RAMOS cells after BCR triggering (immunoblot); type: cell-based, human; details: LTV-1 5 μg/mL
# Method: FIG. 40A depicts the phosphorylation of SHIP1, Lyn and ERK1/2 in total cell lysates of Ramos B cells treated or not with the PTPN22 inhibitor LTV-1 (5 μg/mL) for the indicated times. The cells were subjected to immunoblot analysis of P-LYN P-SHIP1, P-ERK1/2, and β-ACTIN. FIG. 40B depicts flow cytometry analysis of calcium flux of Ramos B cells treated or not with the PTPN22 inhibitor LTV-1 (5 μg/mL) for the indicated times followed by stimulation with anti-IgM F(ab′)2 at the indicated concentrations. FIG. 40C depicts flow cytometry analysis of calcium flux of splenocyte cells treated or not with LTV-1 (0.75 mg) twice daily for 7 days and stimulated with anti-IgM F(ab′)2 (25 μg/mL). FIG. 40D depicts flow cytometry analysis of calcium flux of splenocyte expressing PTPN22 shRNA and stimulated with anti-IgM F(ab′)2 (25 μg/mL).
# However, downstream ERK phosphorylation was not affected by PTPN22 inhibition (FIG. 40A). Since PTPN22 inhibition enhanced TCR signaling in Jurkat cell line, it was investigated if PTPN22 blockade may also increase BCR signaling and calcium flux induced by BCR triggering was measured in RAMOS cells in the presence or not of LTV-1. Calcium flux was increased by PTPN22 inhibition, especially at lower concentration of BCR triggering agent (FIG. 40B). […]
# PTPN22 [2] = test: PTPN22 expression by western blot in shRNA-transduced RAMOS B cell line; type: cell-based; details: human RAMOS B cell line, GFP+ shRNA+ vs GFP-
# Method: FIG. 10A depicts flow cytometry analysis of Ramos B cells transduction efficiency. Ramos B cells were transduced with three different GFP-tagged shRNA PTPN22 expressing lentiviruses and probed for GFP expression. […] Percentage of knock-down is indicated. FIG. 10B depicts the frequencies of polyreactive new emigrant B cells from sorted GFP− fractions were determined. […] For each B-cell fraction, the frequency of reactive (filled area) and non-reactive (open area) clones is summarized in pie charts with the total number of clones tested indicated in the center. FIG. 10C depicts the frequencies of HEp-2 reactive new emigrant B cells from sorted GFP− fractions were determined. […] For each B-cell fraction, the frequency of reactive (filled area) and non-reactive (open area) clones is summarized in pie charts with the total number of clones tested indicated in the center. FIG. 10D depicts the frequencies of antinuclear new emigrant B cells are compared between GFP− and GFP+ shRNA+ new emigrant B cells. […]
# Total cell lysates were separated by SDS page, transferred to PVDF membranes, probed with mouse anti-PTPN22 (Invitrogen) and detected by chemiluminescence (Amersham ECL Prime Western Blotting detection Reagent) using a GBox documentation system (Syngene). For quantification, blots were stripped with stripping buffer (Pierce) and reprobed with a mouse anti-β-Actin antibody (Sigma-Aldrich).
Compound,PTPN22 enzymatic activity in T cells in vitro (PTPN22 [1]),phosphorylation of LYN at position Y396 (LYN),inhibition of PTPN22 expression detected by western blot (PTPN22 [2])
Cc1ccccc1N1C(=O)/C(=C/c2ccc(OCc3cccc(C(=O)O)c3)cc2)C(=O)NC1=S [LTV-1],can be inhibited,decreases,–
"shRNA #1: shRNA targeting human PTPN22, 5′-CTAGTGCTCTTGGTGTATATT-3′, delivered by GFP-tagged lentivirus",–,–,about 80%

# From US11311543B2, “Compositions and methods for inhibiting PTPN22” (YALE UNIVERSITY, priority 2016, dated 2022)
